≈ marks a conversion by molar mass, not a printed value. Where “and” joins values, the source holds several entries; their conditions need not be identical. Equal entries are not always repeated.
Tests used:
[1] = system: A. ustus (PN-S4); assay: In vitro antifungal activity, broth microdilution (MIC100); format: cell-based, Aspergillus ustus; conditions: 30 °C, 48 h, total growth inhibition
Protocol: (§1) Fungal growth was assessed at six concentrations (3.1–100 μg/mL), using enriched Czapek broth in the presence of triazole 1-8 (Fig. 2). Each treatment was carried out in triplicate. The Minimum Inhibitory Concentration (MIC100) was determined and was defined as the minimum concentration required to inhibit the complete fungal growth inhibition under the conditions of the assay. Triadimefon (TDM) and cyproconazole (CPZ) were used as positive control. In order to evaluate the efficacy of the new compounds to control fungi affecting vineyards, imperfect fungi isolated from infected grapes from the province of San Juan in Argentina were employed. Significant differences were determined by t-Student hypothesis test p, at 95% confidence. In general, moderate to good activity was observed compared to the reference compounds as well as some selectivity against microorganisms.
(§2) The imperfect fungi used for the assays included Botrytis cinerea isolated from grapevine samples, Aspergillus fumigatus (ATTC 26934), A. niger (ATCC 9029), A. ustus (PN-S4), A. japonicus (M15C), A. terreus (M16C) and Fusarium oxysporum (M15-Pa) isolated from soil samples from the province of San Juan, Argentina. The microorganisms were grown on Czapek-yeast extract agar (CYA) prepared with yeast extract, K2HPO4, saccharose, agar, distilled water and enriched with a solution of mineral salts (NaNO3, KCl, MgSO4.7H2O and FeSO4.7 H2O). Inocula were adjusted to 1–5 × 10^4 colony forming units (CFU/ mL).
(§3) The minimum inhibitory concentration (MIC) of each compound was evaluated using broth microdilution techniques in 96-well microtiter plates according to the guidelines of the National Committee for Clinical Laboratory Standards for filamentous fungi M 38 A. The starting inoculum was 1–5 × 10^4 CFU/mL in accordance with the Clinical and Laboratory Standards Institute (CLSI, formerly the National Committee for Clinical Laboratory Standards [NCCLS]) (M27-A3 document for yeasts, and M38-A2 document for filamentous fungi).
(§4) Microtiter plates were incubated at 30 °C for Aspergillus and Fusarium, and 22 °C for B. cinerea in a moist and dark chamber. MIC values were recorded after 48 h for Aspergillus and Fusarium spp., and after 72 h for B. cinerea, according to the fungal growth control. TDM and CPZ were used as positive controls (12.5–50 μg/mL). Stock solutions were two-fold diluted with RPMI from 1000 to 0.98 μg/mL (final volume equal to 100 μL), and a final DMSO concentration ≤ 1%. An inoculum suspension (100 μL) was added to each well with the exception of the sterility control. Endpoints were defined as the lowest compound concentration resulting in total growth inhibition (MIC100) compared to the growth in control wells. MICs values ≤ 50 μg/mL were considered of interest. The assay was carried out in triplicate.

[2] = system: B. cinerea (isolated from grapes); assay: as above; format: cell-based, Botrytis cinerea; conditions: B. cinerea
Protocol: as §1, §2, §3, §4

[3] = system: A. niger (ATCC 9029); assay: as above; format: cell-based, Aspergillus niger; conditions: 48 h, total growth inhibition; for Fungicidal activity MIC100, AN: 30 °C
Protocol: as §1, §2, §3, §4

[4] = Cytotoxicity, neutral red uptake assay; format: cell-based, human; conditions: human
Protocol: (§5) The cytotoxic effect of the compounds, expressed as cell viability, was assessed on a permanent fibroblast cell line derived from human lung (MRC-5) (ATCC CCL-171). MRC-5 fibroblasts were grown as monolayers in minimum essential Eagle medium (MEM) with Earle’s salts, 2 mM l-glutamine and 2.2 g/L sodium bicarbonate, supplemented with 10% heat inactivated fetal bovine serum (FBS), 100 IU/mL penicillin and 100 µg/mL streptomycin in a humidified incubator with 5% CO2 in the air at 37 °C. Cell passage was maintained between 10 and 16. The medium was changed every 2 days.
(§6) Confluent cultures of MRC-5 fibroblasts were treated with medium containing the compounds at concentrations ranging from 0 to 1000 µM. For comparison purposes, the commercial antifungals CPZ and TDM were used as references, the products were first dissolved in DMSO and then in MEM, supplemented with 2% FBS. The final content of DMSO in the test medium and controls was 1%. Cells were exposed for 24 h to the test medium with or without the compound (control). Each concentration was tested in quadruplicate together with the control, and repeated three times in separate experiments. At the end of the incubation, the neutral red uptake (NRU) assay was carried out. To calculate the IC50 values (concentration that produces a 50% inhibitory effect on the evaluated parameter), the results were transformed to percentage of controls and the IC50 values were graphically obtained from the dose–response curves.

[5] = system: B. cinerea hyphae; assay: Effect on B. cinerea hyphal morphology (optical microscopy); format: cell-based, Botrytis cinerea; conditions: 12.5 μg/mL
Protocol: Changes in the hyphae morphology of B. cinerea treated with compound 4 were observed using optical microscopy.
The same procedure was carried out with CPZ and blank control (< 2% DMSO solution).

[6] = system: A. terreus (M16C); assay: In vitro antifungal activity, broth microdilution (MIC100); format: cell-based, Aspergillus terreus; conditions: 48 h; for Fungicidal activity MIC100, AT: A. terreus, 30 °C, total growth inhibition
Protocol: as §1, §2, §3, §4

[7] = system: B. cinerea; assay: In vivo antifungal activity on infected grapes under greenhouse conditions; parameters: species or system Botrytis cinerea on Vitis vinifera grapes; conditions: 7 days; for Efficacy (preventive rate) against B. cinerea on grapes: 2.5 µg/mL; for Efficacy (control effectiveness) against B. cinerea on grapes: 12.5 μg/mL
Protocol: The potential usefulness of compound 4 against B. cinerea was assessed under greenhouse conditions using infected grapes (in vivo), at 7 days of exposure. The compound was evaluated at 2.5 μg/mL and 12.5 μg/mL, CPZ was used as positive control (at 12.5 μg/mL). […] The blank control (untreated grapes) was completely affected by B cinerea (100% incidence) (Fig. 4).
The in vivo activity was determined on the Vitis vinifera grapes inoculated with a Botrytis cinerea conidia suspension. Appropriate amounts of the tested compounds were dissolved in DMSO and then suspended in the distilled water (DMSO concentration < 2%).
Healthy grapes, previously washed with a diluted solution of sodium hypochlorite, were punctured with 100 ⎧L of a solution of compound 4 (concentration of 12.5 ⎧g/mL and 2.5 ⎧g/mL) and evaporated at room temperature (~ 25 °C) during 24 h to favour the penetration of the compound. The same procedure was carried out with CPZ and the control blank (< 2% DMSO solution). The grapes epidermis was punctured with a sterile inoculation needle (Ø, 4.5 mm), 200 µL of the pathogen was inoculated at a concentration of 5.10^4 UFC/mL. The fruits were incubated at 20 °C to favour fungal growth, and fungal growth was assessed 7 days later. CPZ was used as positive control under the same conditions. The control effectiveness of the target compound was calculated as (1 − c/d) × 100, where c is the diameter of the treatment and d is the diameter of the blank control (˂ 2% DMSO solution).

[8] = system: Aspergillus fumigatus (ATTC 26934); assay: In vitro antifungal activity, broth microdilution (MIC100); format: cell-based; conditions: A. fumigatus, 30 °C, 48 h, total growth inhibition
Protocol: as §1, §2, §3, §4

[9] = system: Fusarium oxysporum (M15-Pa); assay: as above; format: cell-based; conditions: 30 °C, 48 h, total growth inhibition
Protocol: as §1, §2, §3, §4

[10] = system: A. japonicus (M15C); assay: as above; format: cell-based, Aspergillus japonicus; conditions: 48 h; for Fungicidal activity MIC100, AJ: A. japonicus, 30 °C, total growth inhibition
Protocol: as §1, §2, §3, §4

[11] = system: human lung fibroblasts MRC-5; assay: Cytotoxicity, neutral red uptake assay; format: cell-based; conditions: MRC-5 fibroblasts, 24 h exposure, neutral red uptake; ± SD; read-out: Cytotoxicity IC50
Protocol: as §5, §6

[12] = 22 °C, 72 h, total growth inhibition

Row | Compound | Fungicidal activity MIC100, AU [1] | MIC100 (complete growth inhibition) ([1]; Aspergillus ustus, read-out: Fungicidal activity MIC100, AU) | Fungicidal activity MIC100, BC [2, 12] | MIC100 (complete growth inhibition) ([2]; Botrytis cinerea, 22 °C, 72 h, total growth inhibition, read-out: Fungicidal activity MIC100, BC) | MIC ([2]; Botrytis cinerea, molar conversion of the µg/mL value, read-out: MIC100 against B. cinerea expressed) | Fungicidal activity MIC100, AN [3] | MIC100 (complete growth inhibition) ([3]; Aspergillus niger, ATCC9029, 30 °C, read-out: Fungicidal activity MIC100, AN) | IC50 at 24 h [4] | Hyphal morphology of B. cinerea [5] | Fungicidal activity MIC100, AT [6] | MIC100 (complete growth inhibition) ([6]; Aspergillus terreus, read-out: Fungicidal activity MIC100, AT, A. terreus, 30 °C, total growth inhibition) | Efficacy (preventive rate) against B. cinerea on grapes [7] | Efficacy (control effectiveness) against B. cinerea on grapes [7] | Fungicidal activity MIC100, AF [8] | Minimum inhibitory concentration (MIC100) ([8]; Aspergillus fumigatus, read-out: Fungicidal activity MIC100, AF) | MIC100 (minimum concentration for complete growth inhibition) ([9]; Fusarium oxysporum, F. oxysporum, read-out: Fungicidal activity MIC100, F) | MIC ([10]; read-out: Fungicidal activity MIC100, AJ) | Fungicidal activity MIC100, AJ [10] | IC50 [11] | Fungicidal activity MIC100, F [9]
1 | CC(C1CC1)C(O)(Cn1cncn1)c1ccc(-c2ccc(F)cc2)cc1 (stereo not shown) [Compound 4, 3-Cyclopropyl-2-(4’-fluorobiphenyl-4-yl)-1-(1H-1,2,4-triazol1-yl)butan-2-ol] | 14 ± 0.7 µg/mL | 14 µg/mL (≈ 39.8 µM) | 12.5 ± 0.9 µg/mL | 12.5 µg/mL (≈ 35.6 µM) | 35.5 µM (≈ 12.5 µg/mL) | 10 ± 0.5 µg/mL | 10 µg/mL (≈ 28.5 µM) | 61.1 ± 3.7 µM | morphological alterations, including irregular hyphae, variable diameter and the presence of internal vacuoles | 10 ± 0.4 µg/mL | 10 µg/mL (≈ 28.5 µM) | 50.6% | 100% | 12.5 ± 0.8 µg/mL | 12.5 µg/mL (≈ 35.6 µM) | ≥ 100 µg/mL | 15 µg/mL (≈ 42.7 µM) | 15 ± 0.7 µg/mL |  | 
2 | 1-(4-chlorophenyl)-3-cyclopropyl-2-(1H-1,2,4-triazol-1-yl)butan-1-ol [CPZ, reference compound] | 15 ± 0.7 µg/mL |  | 12.5 ± 0.8 µg/mL |  |  | 25 ± 1.5 µg/mL |  |  |  | 15.0 µg/mL and 15 ± 0.9 µg/mL |  | 38.3% | 75.3% | 25 µg/mL and 25 ± 1.4 µg/mL |  |  |  | 25 ± 1.3 µg/mL | 267 ± 18.7 µM | ≥ 100 µg/mL
